Data on 14 molecules can be found in ChEMBL document CHEMBL4376848, “Synthesis and discovery of triazolo-pyridazine-6-yl-substituted piperazines as effective anti-diabetic drugs; evaluated over dipeptidyl peptidase-4 inhibition mechanism and insulinotropic activities” (Eur J Med Chem, 2020).

In data set [1] the test system is INS1(832/13). The data set can be described thus: Antidiabetic activity in glucose-treated rat INS1(832/13) cells assessed as increase in insulin release at 10 ug/ml in presence of 3 mM glucose measured after 2 hrs by radioimmunoassay (reference value: 52.25 +/- 2.15 %). Type of data set: functional.
In data set [2] the test system is INS1(832/13). The data set can be described thus: Antidiabetic activity in glucose-treated rat INS1(832/13) cells assessed as increase in insulin release at 1 ug/ml in presence of 3 mM glucose measured after 2 hrs by radioimmunoassay (reference value: 52.25 +/- 2.15 %). It counts as functional.
In data set [3] the test system is INS1(832/13). The data set can be described thus: cells. The following applies: Rattus norvegicus, INS-1 832/13, 2 h.
Description: Antidiabetic activity in glucose-treated rat INS1(832/13) cells assessed as increase in insulin release in presence of 3 mM glucose measured after 2 hrs by radioimmunoassay
Data set [4] in a line: Antioxidant activity assessed as inhibition of H2O2 radical scavenging activity incubated for 60 mins by UV-spectrophotometric method relative to control. It counts as functional.
Data set [5] is described as follows: Antioxidant activity assessed as inhibition of H2O2 radical scavenging activity incubated for 60 mins by UV-spectrophotometric method. It counts as functional.
For data set [6], the system named is INS1(832/13). The data set can be described thus: Cytotoxicity against rat INS1(832/13) cells assessed as cell viability upto 3 nM in RPMI medium incubated for over night followed by insulin addition by Alamar Blue assay. It counts as cell-based.
Data set [7] relates to INS1(832/13). The data set can be described thus: Cytotoxicity against rat INS1(832/13) cells assessed as cell viability at 3.5 nM in RPMI medium incubated for over night followed by insulin addition by Alamar Blue assay. Type of data set: cell-based. The following applies: 0.0035 µM.

pIC50: −log10 of the molar value. ≈ marks a conversion by molar mass, not a printed value.

`CCOc1cc(CC(=O)N[C@@H](CC(C)C)c2ccccc2N2CCCCC2)ccc1C(=O)O` [REPAGLINIDE]: the “inhibition (INH)” value in data set [1] is 99.05%; in data set [2], 96.16%. Besides, the pIC50 in data set [3] was 5.90.
`CC(=O)N1CCN(c2ccc3nnc(-c4cccc(C)c4)n3n2)CC1`: in data set [4], the inhibition was 78.2%. In addition, the IC50 in data set [5] came to 28.6 µg/mL (≈ 85 µM).
As to `COc1ccc(N2CCN(c3ccc4nnc(-c5cccc(C)c5)n4n3)CC2)cc1`, in data set [4], the inhibition worked out at 75.6%. Further, the 50% inhibitory concentration (IC50) in data set [5] stood at 45.9 µg/mL (≈ 115 µM).
`Cc1cccc(-c2nnc3ccc(N4CCN(Cc5ccccc5)C(C(=O)O)C4)nn23)c1` (stereo unspecified): the inhibition in data set [4] is 69.4%. In addition, in data set [5], the half-maximal inhibitory concentration (IC50) came to 85.5 µg/mL (≈ 200 µM).
For `Cc1cccc(-c2nnc3ccc(N4CCN(C(c5ccccc5)c5ccccc5)CC4)nn23)c1`, the inhibition in data set [4] came out at 93.2%. In addition, the IC50 in data set [5] came out at 1.75 µg/mL (≈ 3.8 µM). In data set [3], this molecule showed a negative logarithm of the IC50 (pIC50) of 8.32.
In the case of `CCOC(=O)N1CCN(c2ccc3nnc(-c4cccc(C)c4)n3n2)CC1`, the Activity result in data set [6] is recorded as “Non-Toxic”; in data set [7] it was “Toxic”. For the same molecule, the inhibition in data set [4] turned out to be 96.8%. The 50% inhibitory concentration (IC50) in data set [5] came out at 1 µg/mL (≈ 2.73 µM). The molecule also showed a negative logarithm of the IC50 (pIC50) in data set [3] of 8.55.
In the case of `Cc1cccc(-c2nnc3ccc(N4CCN(CCOCCO)CC4)nn23)c1`, in data set [4], the inhibition worked out at 83.2%. The IC50 in data set [5] was 16.8 µg/mL (≈ 43.9 µM).
On to `Cc1cccc(-c2nnc3ccc(N4CCN(C(=O)c5ccccc5)CC4)nn23)c1`, for which the Activity entry is recorded as “Non-Toxic” in data set [6] and “Toxic” in data set [7]. Further, in data set [4], the inhibition turned out to be 94.1%. Moreover, the IC50 in data set [5] was found to be 2.25 µg/mL (≈ 5.65 µM). Besides, the negative-log IC50 (pIC50) in data set [3] is 8.82.
As for `O=C1O[C@H]([C@@H](O)CO)C(O)=C1O` [ASCORBIC ACID], in data set [5], the 50% inhibitory concentration (IC50) came out at 25.3 µg/mL (≈ 144 µM).
As for `Cc1cccc(-c2nnc3ccc(N4CCN(Cc5ccc(F)cc5)CC4)nn23)c1`, in data set [4], the inhibition stood at 91.2%. For the same molecule, in data set [5], the half-maximal inhibitory concentration (IC50) worked out at 2 µg/mL (≈ 4.97 µM). The molecule also gave a negative-log IC50 (pIC50) in data set [3] of 8.41.
With `Cc1cccc(-c2nnc3ccc(N4CCN(Cc5ccccc5)CC4)nn23)c1`, in data set [4], the inhibition was 86.2%. The concentration for half-maximal inhibition (IC50) in data set [5] was determined as 13.4 µg/mL (≈ 34.9 µM).
`Cc1cccc(-c2nnc3ccc(N4CCN(CCN)CC4)nn23)c1`: the inhibition in data set [4] was found to be 78.2%. Besides, the IC50 in data set [5] was 25.4 µg/mL (≈ 75.3 µM).
Taken in the same sequence, the figures for `Cc1cccc(-c2nnc3ccc(N4CCN(C(=O)OC(C)(C)C)C(Cc5ccccc5)C4)nn23)c1` (stereo unspecified) were 80.1% and 15.8 µg/mL (≈ 32.6 µM).
The corresponding values for `Cc1cccc(-c2nnc3ccc(N4CCN(S(C)(=O)=O)CC4)nn23)c1` are 84.2% and 10.8 µg/mL (≈ 29 µM).

As usually defined, the pIC50 is −log10 of the IC50, conventionally taken in molar units. Low readings indicate a large IC50, high ones a small IC50. As usually defined, the inhibition is the percentage by which the read-out fell short of the control. The IC50 is the concentration that gives 50% inhibition.
